Measured values from article PMC3821907, “Synthesis of Novel Compounds as New Potent Tyrosinase Inhibitors” (BioMed Research International, 2013).

Experiments:
mushroom tyrosinase = test: Tyrosinase inhibition assay (diphenolase activity, L-DOPA substrate); format: biochemical; settings: L-DOPA 0.5 mM, pH 6.8, 25°C, mean ± SEM, read-out: IC50 ± SEM, tyrosinase inhibitory activity
Experimental: The spectrophotometric assay for tyrosinase was performed according to the method Ref 15. Briefly, all the synthesized compounds were screened for the diphenolase inhibitory activity of tyrosinase using L-DOPA as substrate. All the compounds were dissolved in DMSO. The final concentration of DMSO in the test solution was 2.0%. Phosphate buffer, pH=6.8, was used to dilute the DMSO stock solution of test compounds. Thirty units of mushroom tyrosinase (0.5 mg/mL) were first preincubated with the compounds, in 50 mM phosphate buffer (pH 6.8), for 10 min at 25°C. Then the L-DOPA (0.5 mM) was added to the reaction mixture, and the enzyme reaction was monitored by measuring the change in absorbance at 475 nm of formation of the L-DOPA chrome for 10 min. The measurement was performed in triplicate for each concentration and averaged before further calculation. […] The percent of inhibition of tyrosinase reaction was calculated as the following: Inhibition (%) = [B−S/B] × 100. Here, the B and S are the absorbances for the blank and samples.

[1] = system: B16F10 mouse melanoma cells; test: Inhibition of melanin production; format: cell-based; settings: 72 h; for inhibition at 20 µg/mL: B16-F10, 20 μg/mL
Experimental: (§1) Also inhibitions of the compounds 5a–5f were tested on melanin production and their cytotoxicity on B16F10 mouse melanoma cells at concentrations of 20 μg/mL.
Melanin production inhibition was ascertained by method of Wang et al.. A total of 8 × 10^4 cells were added to 60 mm plates and were incubated at 37°C in a CO2 incubator, then, 10 μL test samples in DMSO were added to plates and were incubated for 72 hours at 37°C in a CO2 incubator. After washing with PBS, cells were destroyed with 1 mL of 1 N NaOH, and 200 μL portions of raw cell extracts were moved to 96-well plates. Melanin production inhibition was determined by recording absorbance at 495 nm. The effects of test samples on melanin contents are stated as percent inhibitions of the value obtained in B16F10 mouse melanoma cells which were cultured with DMSO alone.

Cytotoxicity assay (MTT) = format: cell-based; settings: B16F10 mouse melanoma cells, read-out: Cytotoxicity cell viability (%)
Experimental: as §1
Cytotoxicity assays were performed using a microculture MTT method described by Han et al.. A B16F10 mouse melanoma cell suspension was poured into a 96-well plate (10^3 cells/well), and cells were allowed to completely stick […] overnight. Test samples were then added to the plate and were incubated at 37°C for 72 h in a CO2 incubator. 20 μL of MTT solution (2 mg/mL) was then added per well and incubated for 4 hours. Supernatant was then removed, and formazan was solubilized by adding 150 μL DMSO to each well with mild shaking. Absorbance at 490 nm was recorded using an ELISA plate reader.

Row | IC50 (mushroom tyrosinase) | melting point | Compound | inhibition at 20 µg/mL [1] | viability at 72 h, 20 μg/mL (Cytotoxicity assay (MTT)) | inhibition at 200 µg/mL ([1]; B16-F10, tested at 200 µg/mL) | viability at 72 h, 200 µg/mL (Cytotoxicity assay (MTT); tested at 200 µg/mL)
1 | 4390 ± 760 nM | 293 °C (dec.) | Cc1ccc(SC(=O)/C(=C\c2ccc(F)cc2)NC(=O)c2ccc(/N=N/c3ccc(N(C)C)cc3)cc2)c(S)c1 [Compound 5a, 4-Methyl-2-sulfanylphenyl(E)-2-[(4-{(E)-2-[4-(dimethylamino)phenyl]-1-diazenyl}benzoyl)amino]-3-(4-fluorophenyl)-2-propenethioate] | 42.1 ± 0.75% | 82.2 ± 3.55% | – | –
2 | 3860 ± 660 nM | 286 °C (dec.) | Cc1ccc(SC(=O)/C(=C\c2ccc(OC(F)(F)F)cc2)NC(=O)c2ccc(/N=N/c3ccc(N(C)C)cc3)cc2)c(S)c1 [Compound 5b, 4-Methyl-2-sulfanylphenyl(E)-2-[(4-{(E)-2-[4-(dimethylamino)phenyl]-1-diazenyl}benzoyl)amino]-3-[4-(trifluoromethoxy)phenyl]-2-propenethioate] | 41 ± 4.33% | 80.1 ± 1.89% | – | –
3 | 2680 ± 550 nM | 308 °C (dec.) | CC(=O)Oc1c(/N=N/c2ccc(C(=O)N/C(=C/c3ccc(F)cc3)C(=O)Sc3ccc(C)cc3S)cc2)ccc2ccccc12 [Compound 5c, 2-[(E)-2-(4-{[((E)-2-(4-fluorophenyl)-1-{[(4-methyl-2-sulfanylphenyl)sulfanyl]carbonyl}-1-ethenyl)amino]carbonyl}phenyl)-1-diazenyl]-1-naphthyl Acetate] | 35.9 ± 3.11% | 83.2 ± 2.22% | – | –
4 | 2480 ± 880 nM | 318 °C (dec.) | CC(=O)Oc1c(/N=N/c2ccc(C(=O)N/C(=C/c3ccc(OC(F)(F)F)cc3)C(=O)Sc3ccc(C)cc3S)cc2)ccc2ccccc12 [Compound 5d, 2-((E)-2-{4-[({(E)-1-{[(4-Methyl-2-sulfanylphenyl)sulfanyl]carbonyl}-2-[4-(trifluoromethoxy)phenyl]-1-ethenyl}amino)carbonyl]phenyl}-1-diazenyl)-1-naphthyl Acetate] | 37.5 ± 4.09% | 84.7 ± 5.38% | – | –
5 | 1980 ± 390 nM | 325 °C (dec.) | CC(=O)Oc1ccc2ccccc2c1/N=N/c1ccc(C(=O)N/C(=C/c2ccc(F)cc2)C(=O)Sc2ccc(C)cc2S)cc1 [Compound 5e, 1-[(E)-2-(4-{[((E)-2-(4-fluorophenyl)-1-{[(4-methyl-2-sulfanylphenyl)sulfanyl]carbonyl}-1-ethenyl)amino]carbonyl}phenyl)-1-diazenyl]-2-naphthyl Acetate] | 36.8 ± 1.44% | 81.9 ± 1.08% | – | –
6 | 1710 ± 490 nM | 320 °C (dec.) | CC(=O)Oc1ccc2ccccc2c1/N=N/c1ccc(C(=O)N/C(=C/c2ccc(OC(F)(F)F)cc2)C(=O)Sc2ccc(C)cc2S)cc1 [Compound 5f, 1-((E)-2-{4-[({(E)-1-{[(4-Methyl-2-sulfanylphenyl)sulfanyl]carbonyl}-2-[4-(trifluoromethoxy)phenyl]-1-ethenyl}amino)carbonyl]phenyl}-1-diazenyl)-2-naphthyl Acetate] | 34.7 ± 2.22% | 80.6 ± 2.65% | – | –
7 | – | – | O=c1cc(CO)occ1O [Kojic acid, reference compound] | – | – | 17.3 ± 1.29% | 81.7 ± 1.23%
